The results in this text go back to US11453669B2, “Polycyclic pyridone derivative” (Shionogi & Co., Ltd., priority 2018, dated 2022).

In this assay the test system is HIV. The assay can be described thus: Anti-HIV activity (MT-4 cells, MTT). The class given is cell-based. As to conditions: Human immunodeficiency virus 1, MT4, 96 h, read-out: EC50_nM (50% HIV inhibitory concentration). How it is done:
Serial dilutions of a test sample were prepared in a 96-well microplate (50 μL/well). 2.5×10^5 cells/mL of an MT-4 cell suspension was dispensed at 100 μL/well to the plate containing the test sample. Then, an HIV virus solution was dispensed at 50 μL/well. The plate was mixed with a plate mixer and cultured for 4 days in a CO2 incubator. An MTT (3-(4,5-dimethylthiazol-2-yl)-2,5-diphenyltetrazolium bromide) solution was dispensed at 30 μL/well. The plate was reacted for 1 hour in a CO2 incubator. 150 μL of the supernatant was removed from each well so as not to take up the cells. 150 μL of a cell lysis solution was added to each well and well mixed with a plate mixer until the cells were completely lysed. The absorbance of the mixed plate was measured at two wavelengths of 560 nm and 690 nm using a microplate reader.

Where [1] appears, read: MT-4 cells, cultured 4 days, MTT.

The structures appear in SMILES notation. Read-outs that look alike come from different tables or passages of the source.

Consider `CCN1C(=O)c2c(O)c(=O)c(-c3ncc(Cc4ccc(F)cc4F)s3)cn2N2CCCC[C@H]12` [Compound I-003], for which, under setting [1], the EC50 turned out to be 7.1 nM.

Take `CCN1C(=O)c2c(O)c(=O)c(-c3nnc(Cc4cccc(Cl)c4F)s3)cn2N2CCCC[C@H]12` [Compound I-005]: the EC50 under setting [1] is 3.2 nM.

With `CCN1C(=O)c2c(O)c(=O)c(-c3nnc(Cc4cccc(Cl)c4F)s3)cn2N2CCCC[C@@H]12` [Compound I-006], the EC50 under setting [1] was 2.7 nM.

Take `CCN1C(=O)c2c(O)c(=O)c(-c3nnc(Cc4c(F)cc(F)cc4F)s3)cn2N2CCCC[C@H]12` [Compound I-007]: the EC50 under setting [1] turned out to be 2.2 nM.

Consider `CCN1C(=O)c2c(O)c(=O)c(-c3nnc(Cc4ccc(F)c(Cl)c4)s3)cn2N2CCCC[C@H]12` [Compound I-009], for which, under setting [1], the EC50 amounted to 7.2 nM.

As to `CCN1C(=O)c2c(O)c(=O)c(-c3nnc(Cc4ccc(F)c(Cl)c4)s3)cn2N2CCCC[C@@H]12` [Compound I-010], under setting [1], the EC50 amounted to 3.8 nM.

In the case of `CCN1C(=O)c2c(O)c(=O)c(-c3nnc(Cc4cc(F)c(F)cc4F)s3)cn2N2CCCC[C@H]12` [Compound I-011], the EC50 under setting [1] came to 5 nM.

`CCN1C(=O)c2c(O)c(=O)c(-c3nnc(Cc4ccc(F)c(F)c4F)s3)cn2N2CCCC[C@H]12` [Compound I-013]: under setting [1], the EC50 amounted to 3 nM.

For the compound `CCN1C(=O)c2c(O)c(=O)c(-c3nnc(Cc4ccc(F)c(F)c4F)s3)cn2N2CCCC[C@@H]12` [Compound I-014], under setting [1], the EC50 is 1.3 nM.

For `CN1C(=O)c2c(O)c(=O)c(-c3nnc(Cc4cccc(Cl)c4F)s3)cn2N2CCCC[C@H]12` [II-001], under setting [1], the EC50 worked out at 4.3 nM.

Consider `CN1C(=O)c2c(O)c(=O)c(-c3nnc(Cc4cccc(Cl)c4F)s3)cn2N2CCCC[C@@H]12` [II-002], for which the EC50 under setting [1] was 1.6 nM.

Turning to `CN1C(=O)c2c(O)c(=O)c(-c3nnc(Cc4c(F)cc(F)cc4F)s3)cn2N2CCCC[C@@H]12` [II-004], under setting [1], the EC50 came to 0.7 nM.

Consider `CCN1C(=O)c2c(O)c(=O)c(-c3cnn(Cc4ccc(F)cc4F)c3)cn2N2CCCC[C@H]12` [II-005], for which the EC50 under setting [1] was found to be 9.7 nM.

On to `CCN1C(=O)c2c(O)c(=O)c(-c3cnn(Cc4cccc(Cl)c4F)c3)cn2N2CCCC[C@H]12` [II-007], for which the EC50 under setting [1] was 14 nM.

For the compound `CCN1C(=O)c2c(O)c(=O)c(-c3cnn(Cc4cccc(Cl)c4F)c3)cn2N2CCCC[C@@H]12` [II-008], the EC50 under setting [1] is 4.5 nM.

Consider `CN1C(=O)c2c(O)c(=O)c(-c3nnc(Cc4ccc(F)cc4F)s3)cn2N2CCOC[C@H]12` [II-009], for which the EC50 amounted to 1.3 nM.

Consider `CN1C(=O)c2c(O)c(=O)c(-c3nnc(Cc4c(F)cc(F)cc4F)s3)cn2N2CCOC[C@H]12` [II-011], for which the EC50 under setting [1] turned out to be 0.5 nM.

As for `CN1C(=O)c2c(O)c(=O)c(-c3nnc(Cc4c(F)cc(F)cc4F)s3)cn2N2CCOC[C@@H]12` [II-012], the EC50 under setting [1] was found to be 0.25 nM.

As to `CCN1C(=O)c2c(O)c(=O)c(-c3cnn(Cc4ncc(Cl)cc4F)c3)cn2N2CCCC[C@H]12` [II-014], the EC50 under setting [1] came out at 61 nM.

As to `CCN1C(=O)c2c(O)c(=O)c(-c3nnc(Cc4ccc(F)cc4F)s3)cn2N2CCOC[C@H]12` [II-015], under setting [1], the EC50 came to 1.6 nM.

With `CCN1C(=O)c2c(O)c(=O)c(-c3nnc(Cc4ccc(F)cc4F)s3)cn2N2CCOC[C@@H]12` [II-016], the EC50 under setting [1] is 0.19 nM.

For the compound `CCN1C(=O)c2c(O)c(=O)c(-c3nnc(Cc4c(F)cc(F)cc4F)s3)cn2N2CCOC[C@H]12` [II-017], the EC50 under setting [1] stood at 1.1 nM.

In the case of `CCN1C(=O)c2c(O)c(=O)c(-c3nnc(Cc4ccc(F)cc4)s3)cn2N2CCOC[C@H]12` [II-019], under setting [1], the EC50 was 2.1 nM.

Consider `CCN1C(=O)c2c(O)c(=O)c(-c3nnc(Cc4ccc(F)cc4)s3)cn2N2CCOC[C@@H]12` [II-020], for which the EC50 under setting [1] amounted to 0.7 nM.

As for `CCN1C(=O)c2c(O)c(=O)c(-c3nnc(Cc4ccc(F)cc4F)s3)cn2N2C[C@@H](C)C[C@H]12` [II-021], the EC50 under setting [1] was determined as 2.6 nM.

As to `CCN1C(=O)c2c(O)c(=O)c(-c3nnc(Cc4ccc(F)cc4F)s3)cn2N2CC[C@H](C)[C@@H]12` [II-022], under setting [1], the EC50 was determined as 0.67 nM.

In the case of `CCN1C(=O)c2c(O)c(=O)c(-c3nnc(Cc4c(F)cc(F)cc4F)s3)cn2N2C[C@@H](C)C[C@H]12` [II-025], the EC50 under setting [1] came to 0.9 nM.

`CCN1C(=O)c2c(O)c(=O)c(-c3nnc(Cc4c(F)cc(F)cc4F)s3)cn2N2CC[C@H](C)[C@@H]12` [II-026]: the EC50 under setting [1] came out at 0.39 nM.

Take `C[C@@H]1CC[C@@H]2N(C)C(=O)c3c(O)c(=O)c(-c4nnc(Cc5ccc(F)cc5F)s4)cn3N12` [II-028]: the EC50 under setting [1] worked out at 0.13 nM.

With `C[C@@H]1CC[C@@H]2N(C)C(=O)c3c(O)c(=O)c(-c4nnc(Cc5c(F)cc(F)cc5F)s4)cn3N12` [II-030], the EC50 under setting [1] amounted to 1.4 nM.

As for `C[C@@H]1CC[C@H]2N(C)C(=O)c3c(O)c(=O)c(-c4nnc(Cc5c(F)cc(F)cc5F)s4)cn3N12` [II-031], under setting [1], the EC50 is 0.13 nM.

For the compound `C[C@H]1CCN2[C@@H](C1)N(C)C(=O)c1c(O)c(=O)c(-c3nnc(Cc4ccc(F)cc4F)s3)cn12` [II-032], under setting [1], the EC50 was determined as 0.13 nM.

As to `C[C@@H]1CCN2[C@@H](C1)N(C)C(=O)c1c(O)c(=O)c(-c3nnc(Cc4ccc(F)cc4F)s3)cn12` [II-034], the EC50 under setting [1] stood at 0.13 nM.

`CN1C(=O)c2c(O)c(=O)c(-c3nnc(Cc4c(F)cc(F)cc4F)s3)cn2N2C[C@@H]3CC[C@@H](O3)[C@@H]12` [II-035]: the EC50 under setting [1] turned out to be 0.28 nM.

Take `CN1C(=O)c2c(O)c(=O)c(-c3nnc(Cc4c(F)cc(F)cc4F)s3)cn2N2C[C@H]3CC[C@H](O3)[C@H]12` [II-036]: the EC50 under setting [1] is 2 nM.

Regarding `CN1C(=O)c2c(O)c(=O)c(-c3nnc(Cc4ccc(F)cc4F)s3)cn2N2Cc3ccccc3[C@H]12` [II-039], under setting [1], the EC50 turned out to be 3.8 nM.

With `CN1C(=O)c2c(O)c(=O)c(-c3nnc(Cc4ccc(F)cc4F)s3)cn2N2Cc3ccccc3[C@@H]12` [II-040], under setting [1], the EC50 worked out at 1.3 nM.

On to `C[C@H]1CC[C@H]2N(C)C(=O)c3c(O)c(=O)c(-c4nnc(Cc5c(F)cc(F)cc5F)s4)cn3N2C1` [II-042], for which, under setting [1], the EC50 stood at 0.2 nM.

For the compound `CCN1C(=O)c2c(O)c(=O)c(-c3nnc(Cc4c(F)cc(F)cc4F)s3)cn2N2C[C@H]3CC[C@H](O3)[C@H]12` [II-045], the EC50 under setting [1] amounted to 2 nM.

For `CCN1C(=O)c2c(O)c(=O)c(-c3nnc(Cc4ccc(F)cc4F)s3)cn2N2C[C@H]3CC[C@H](O3)[C@H]12` [II-047], under setting [1], the EC50 amounted to 1.4 nM.

On to `CCN1C(=O)c2c(O)c(=O)c(-c3nnc(Cc4ccc(F)cc4)s3)cn2N2C[C@H]3CC[C@H](O3)[C@H]12` [II-049], for which, under setting [1], the EC50 was 1.6 nM.

Regarding `CC(C)N1C(=O)c2c(O)c(=O)c(-c3nnc(Cc4c(F)cc(F)cc4F)s3)cn2N2C[C@H]3CC[C@H](O3)C12` (stereo partly drawn) [II-053], the EC50 under setting [1] amounted to 1.3 nM.

For the compound `CC(C)N1C(=O)c2c(O)c(=O)c(-c3nnc(Cc4ccc(F)cc4F)s3)cn2N2CC[C@@H](C)C[C@@H]12` [II-059], the EC50 under setting [1] amounted to 1 nM.

On to `CC(C)N1C(=O)c2c(O)c(=O)c(-c3nnc(Cc4c(F)cc(F)cc4F)s3)cn2N2CC[C@@H](C)C[C@@H]12` [II-060], for which the EC50 under setting [1] worked out at 2.7 nM.

For `CCN1C(=O)c2c(O)c(=O)c(-c3nnc(Cc4ccc(F)cc4F)s3)cn2N2[C@H](C)CCC[C@@H]12` [II-066], the EC50 under setting [1] came to 1.1 nM.
